The record followed here is US10561666B2, “Amido compounds as RORγt modulators and uses thereof” (New York University, priority 2010, dated 2020).

The IC50 is the concentration at which inhibition is half-maximal. A higher IC50 goes with lower potency.

This test addresses RORγt (Mus musculus, UniProt P51450, T352K). Briefly: RORγt S2 cell Gal4-luciferase reporter assay. Particulars: for Emax: read-out: Efficacy (%); for Efficacy (%): % of the maximal response of control inhibitor (Digoxin), set at 100%. On the technique in general: In a reporter assay the amount or activity of a reporter protein is the signal.
[1] abbreviates: IC50(μM), Drosophila S2 cells, Gal4-RORγt luciferase reporter, 20 hr.
The mark [2] stands for this setting: Drosophila S2 cells, Gal4-RORγt luciferase reporter, 20 hr.
The mark [3] stands for this setting: S2 cell RORg IC50 μM, S2 cell reporter assay, listed for comparison.

Sequence of RORγt (P51450 with tags, fused parts or gaps T352K): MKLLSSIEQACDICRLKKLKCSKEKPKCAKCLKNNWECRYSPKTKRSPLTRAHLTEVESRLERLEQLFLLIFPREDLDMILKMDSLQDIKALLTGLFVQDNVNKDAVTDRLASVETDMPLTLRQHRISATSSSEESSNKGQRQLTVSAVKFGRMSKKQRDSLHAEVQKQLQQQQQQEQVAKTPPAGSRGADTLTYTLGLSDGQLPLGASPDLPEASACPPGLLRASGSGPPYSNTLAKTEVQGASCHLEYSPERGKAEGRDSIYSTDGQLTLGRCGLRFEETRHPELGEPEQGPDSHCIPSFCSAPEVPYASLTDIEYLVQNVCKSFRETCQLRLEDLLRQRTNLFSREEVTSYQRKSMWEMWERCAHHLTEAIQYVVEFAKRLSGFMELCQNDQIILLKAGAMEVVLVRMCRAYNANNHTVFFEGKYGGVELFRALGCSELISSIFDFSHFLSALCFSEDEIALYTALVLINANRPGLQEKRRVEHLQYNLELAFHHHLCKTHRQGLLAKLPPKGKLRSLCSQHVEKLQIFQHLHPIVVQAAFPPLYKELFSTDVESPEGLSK
Excerpt: Methods: The Drosophila S2 cell line was originally purchased from Invitrogen and was maintained in Schneider's medium supplemented with 10% heat-inactivated bovine fetal calf serum and antibiotics (Invitrogen). […] The resulting chimeric gene was subcloned into the copper inducible pMT/V5-His A vector (available from Invitrogen).
In order to generate stable cell lines, cells were co-transfected with pMT-G4DBD-RORγt, pMT-G4DBD-RORα, pMT-G4DBD-DHR3, or pMT-G4DBDVP16 and pHygro plasmids (Invitrogen) and screened for resistant colonies in the presence of hygromycin (0.3 mg/mL).
Methods: 600 G4DBD-RORγ/γt-luc reporter (#25) or G4DBD-VP16-luc reporter cells were distributed into each well of 1,536-well white bottom plates in 4 μl S2 cell culture volume containing hygromicin (300 μg/ml) and puromycin (2 μg/ml). […] After one-hour incubation, 1 μl of culture medium solution containing copper sulfate (to final 0.7 mM) and 10 μM RORγ/γt antagonists were added to each well. After 20-hour incubation at ambient temperature, 1.5 μl firefly luciferase detection mix was added and the luciferase activities were measured in 10 min. ViewLux luminometers were used for measuring luciferase signal.
Since their cognate DNA binding sites were not well characterized, the DNA binding domains (DBD) of RORγ/γt, RORα (mouse homolog for POPγ), and DHR3 (Drosophila orthologue for ROR family proteins) were replaced with the heterologous yeast GAL4 DBD. The transcriptionally active domain of general transcriptional activator VP16 was also fused with GAL4 DBD. The GAL4 fusion constructs were placed under the control of a copper inducible promoter, and stable S2 cell lines with genomic integration of these four reporter constructs were generated. The copper inducible promoter ensures tight regulation of GAL4-fusion protein expression and it allows small molecules to get into the cells prior to protein induction, thus increasing their effects on GAL4 reporters. The stable reporter cell lines also encode the firefly luciferase reporter, whose expression is regulated by five copies of the GAL4 binding site enhancer (UAS), along with the pol III-driven Renilla luciferase reporter.
A cell-based reporter assay was used to detect RORγt-mediated activity. This assay, called RORγt□ employed Drosophila Schneider cells that were stably transfected with two vectors: a gene expressing a fusion of the Gal4 DNA binding domain and RORγt transactivation domain under the control of the metallothionine promoter and a Photinus luciferase reporter regulated by the Gal4 binding site enhancer, UAS. […] Cells (600/well) were dispensed into white solid 1536-well plates (Greiner) using a solenoid-based dispenser. Following transfer of 23 nL compound or DMSO vehicle by a pin tool, the plates were incubated 1 hr at ambient temperature, and 1 uL/well copper sulfate (700 uM final concentration) was added. The plates were centrifuged 15 s at 1000 RPM and incubated 20 hr at ambient temperature. After addition of 1.5 uL Photinus luciferase detection reagent, the plates were incubated 10 min at ambient temperature and then read by a ViewLux (Perkin Elmer) to detect luminescence. […] Efficacy is expressed as % of the maximal response of control inhibitor (Digoxin), set at 100%.

With `CC1CC(C)CN(C(=O)CC(c2ccc3c(c2)OCO3)c2cccc(F)c2O)C1` (centres unmarked) [Compound 143], the Emax was found to be 86.4%. Also, under setting [1], the IC50 was in the range of 11 to 50 µM.
Turning to `COc1cc(O)c(C(CC(=O)N2CCCC(C(=O)N3CCCCC3)C2)c2ccc3c(c2)OCO3)c(OC)c1` (centres unmarked) [Compound 17], the IC50 under setting [1] is above 50 µM.
Compound `COc1cc(O)c(C(CC(=O)N2CCCC(CN3CCCCC3)C2)c2ccc3c(c2)OCO3)c(OC)c1` (centres unmarked) [Compound 15] showed an IC50 under setting [1] above 50 µM.
For `Cc1ccc(C)c(C(CC(=O)N2CCCC(C)C2)c2ccc3c(c2)OCO3)c1O` (centres unmarked) [Compound 113], the Emax was determined as 81.5%. Under setting [1], this compound had an IC50 of 11 to 50 µM.
Compound `COc1cc(O)c(C(CC(=O)N2CC(C)CC(C)C2)c2ccc(C(C)=O)cc2)c(OC)c1` (centres unmarked) [Compound 100, 3-(4-Acetylphenyl)-1-(3,5-dimethylpiperidin-1-yl)-3-(2-hydroxy-4,6-dimethoxyphenyl)propan-1-one] returned an IC50 under setting [1] below 1 µM.
Under setting [1], `COc1cc(O)c(C(CC(=O)N2CC(C)CC(C)C2)c2ccc(S(=O)(=O)N(C)C)cc2)c(OC)c1` (centres unmarked) [Compound 84, 4-(3-(3,5-Dimethylpiperidin-1-yl)-1-(2-hydroxy-4,6-dimethoxyphenyl)-3-oxopropyl)-N,N-dimethylbenzenesulfonamide] showed an IC50 of 11 to 50 µM.
Regarding `COc1cc2ccccc2c(O)c1C(CC(=O)N1CCCC(C)C1)c1ccc2c(c1)OCO2` (centres unmarked) [Compound 128], the Emax came out at 80%. The compound further registered an IC50 under setting [1] of 11 to 50 µM.
Turning to “N-(3-(3-(3,5-Dimethylpiperidin-1-yl)-1-(2-hydroxy-4,6-dimethoxyphenyl)-3-oxopropyl)phenyl)methanesulfonamide [Compound 82]”, the “Efficacy (%)” value is listed as −95.39%. In addition, the IC50 under setting [2] is below 1 µM.
Regarding `COc1cc(O)c(C(CC(=O)Nc2cccc3ccccc23)c2ccc3c(c2)OCO3)c(OC)c1` (centres unmarked) [Compound 31], the IC50 under setting [1] was above 50 µM.
Consider `COc1cc(OC)c(C(c2ccccc2)C(C)(C)C(=O)N2C3CCC2CC3)c(OC)c1` (centres unmarked) [Compound 153], for which the Emax was 36.5%. Moreover, the IC50 under setting [1] lay in the range of 1 to 10 µM.
As for `COc1ccccc1C(CC(=O)N1CCCCC1)c1ccccc1` (centres unmarked) [Compound 56], the Emax was determined as 30.5%. The IC50 under setting [1] is 1 to 10 µM.
On the same counts, the results for `COc1cc(O)c(C(CC(=O)N2CC(C)CC(C)C2)c2ccc(SC)cc2)c(OC)c1` (centres unmarked) [Compound 105, 1-(3,5-Dimethylpiperidin-1-yl)-3-(2-hydroxy-4,6-dimethoxyphenyl)-3-(4-(methylthio)phenyl)propan-1-one] are 94.7% and below 1 µM.
Regarding `CC1CCCN(C(=O)CC(c2ccc3c(c2)OCO3)c2ccc(O)cc2O)C1` (centres unmarked) [Compound 122], under setting [1], the IC50 was above 50 µM.
The compound `COc1cc(O)c(C(CC(=O)N2CCC(c3ccccc3)CC2)c2ccc(OC)c(OC)c2)c(OC)c1` (centres unmarked) [Compound 45] yielded an IC50 under setting [1] above 50 µM.
`COc1cc(O)c(C(CC(=O)N2CC(C)CC(C)C2)c2ccc(C(=O)O)cc2)c(OC)c1` (centres unmarked) [Compound 99]: the Emax amounted to 92.6%. This compound also yielded an IC50 under setting [1] of 1 to 10 µM.
As for `COc1cc(O)c(C(CC(=O)N2CCCC(CO)C2)c2ccc3c(c2)OCO3)c(OC)c1` (centres unmarked) [Compound 20], the Emax was 44.7%. Under setting [1], this compound showed an IC50 of 11 to 50 µM.
Compound `COc1cc(O)c(C(CC(=O)N2CCC(Cc3ccccc3)CC2)c2ccc(C)cc2)c(OC)c1` (centres unmarked) [Compound 44] registered an IC50 under setting [1] above 50 µM.
As for `CC1CC(C)CN(C(=O)CC(c2ccc3c(c2)OCO3)c2c(O)ccc3cccnc23)C1` (centres unmarked) [Compound 146], the Emax amounted to 94.1%. The IC50 under setting [1] fell in the range of 1 to 10 µM.
Consider `COc1cc(O)c(C(CC(=O)NCC2CCCCC2)c2ccc3c(c2)OCO3)c(OC)c1` (centres unmarked) [Compound 24], for which the IC50 under setting [1] is above 50 µM.
Compound `COc1cc(OC)c(C(c2ccccc2)C(C)(C)C(=O)NC2CC(C)(C)CC(C)(C)C2)c(OC)c1` (centres unmarked) [Compound 154] registered an IC50 under setting [1] above 50 µM.
Regarding `COc1cc(O)c(C(CC(=O)N2CCCC(C)C2)c2cccc3ccccc23)c(OC)c1` (centres unmarked) [Compound 66], the Emax is 52%. Also, under setting [1], the IC50 was 11 to 50 µM. For the same compound, the IC50 under setting [3] is 11 to 20 µM.
Take `COc1cc(O)c(C(CC(=O)N2CCCC(C)C2)c2ccc(-c3ccccc3)cc2)c(OC)c1` (centres unmarked) [Compound 67]: the Emax stood at 72%. Under setting [1], the IC50 is 11 to 50 µM. Besides, the IC50 under setting [3] was in the range of 11 to 20 µM.
The compound `CCC(=O)C1CCCN(C(=O)CC(c2ccc3c(c2)OCO3)c2c(O)cc(OC)cc2OC)C1` (centres unmarked) [Compound 13] had an IC50 under setting [1] above 50 µM.
For `Cc1cccc(O)c1C(CC(=O)N1CCCC(C)C1)c1ccc2c(c1)OCO2` (centres unmarked) [Compound 126], the Emax was 43.5%. The compound also came in with an IC50 under setting [1] of 11 to 50 µM.
`CC1CC(C)CN(C(=O)CC(c2ccc3c(c2)OCO3)c2ccc(F)cc2O)C1` (centres unmarked) [Compound 144]: the Emax turned out to be 97.3%. The compound also displayed an IC50 under setting [1] of 11 to 50 µM.
With `COc1cc(OC)c(C(c2ccccc2)C(C)(C)C(=O)N2CC3CCC2C3)c(OC)c1` (centres unmarked) [Compound 152], the Emax amounted to 50.7%. Further, the IC50 under setting [1] fell in the range of 11 to 50 µM.
Under setting [1], `COc1cc(O)c(C(CC(=O)N2CCCC(C(=O)c3ccccc3)C2)c2ccc3c(c2)OCO3)c(OC)c1` (centres unmarked) [Compound 16] came in with an IC50 above 50 µM.
For `CC1CCCN(C(=O)CC(c2ccc3c(c2)OCO3)c2c(O)cccc2Cl)C1` (centres unmarked) [Compound 127], the Emax is 27.1%. The compound also gave an IC50 under setting [1] of 11 to 50 µM.
On the same counts, the results for `COc1ccc(C)c(O)c1C(CC(=O)N1CCCC(C)C1)c1ccc2c(c1)OCO2` (centres unmarked) [Compound 130] are 77.5% and 11 to 50 µM.
On the same counts, the results for `COc1cc(O)c(C(CC(=O)N2CCCC(C)C2)c2ccc(OC)c(OC)c2)c(OC)c1` (centres unmarked) [Compound 58] are 98.2% and 11 to 50 µM.
Consider `COc1c(C(CC(=O)N2CC(C)CC(C)C2)c2ccc3c(c2)OCO3)c(O)cc2occc12` (centres unmarked) [Compound 139], for which the Emax stood at 94.5%. This compound also registered an IC50 under setting [1] below 1 µM.
Consider `COc1cc(O)c(C(CC(=O)N2CCOCC2)c2ccc3c(c2)OCO3)c(OC)c1` (centres unmarked) [Compound 4], for which the Emax turned out to be 20.2%. This compound also yielded an IC50 under setting [1] of 11 to 50 µM.
The compound `COc1cc(O)c(C(CC(=O)N2CCN(c3ccc(F)cc3)CC2)c2ccc3c(c2)OCO3)c(OC)c1` (centres unmarked) [Compound 40] came in with an IC50 under setting [1] above 50 µM.
Consider `COc1cc(O)c(C(CC(=O)N2CCCC(c3nc4ccccc4o3)C2)c2ccc3c(c2)OCO3)c(OC)c1` (centres unmarked) [Compound 18], for which the Emax was 90.6%. The same compound yielded an IC50 under setting [1] of 11 to 50 µM.
Consider `CCOc1ccc(C(CC(=O)N2CCCC(C)C2)c2c(O)cc(OC)cc2OC)cc1` (centres unmarked) [Compound 62], for which the Emax was 100%. Under setting [1], the IC50 lay in the range of 1 to 10 µM.
As for `COc1cccc(O)c1C(CC(=O)N1CC(C)CC(C)C1)c1ccc2c(c1)OCO2` (centres unmarked) [Compound 140, 3-(Benzo[d][1,3]dioxol-5-yl)-1-(3,5-dimethylpiperidin-1-yl)-3-(2-hydroxy-6-methoxyphenyl)propan-1-one], the Emax stood at 96.5%. Besides, the IC50 under setting [1] was below 1 µM.
As for `Cc1ccc(C(CC(=O)N2CCCC(C)C2)c2ccc3c(c2)OCO3)c(O)c1` (centres unmarked) [Compound 125], the Emax was found to be 51.6%. Under setting [1], the IC50 lay within 11 to 50 µM.
As to `COc1cc(O)c(C(CC(=O)N2CCc3ccccc32)c2ccc3c(c2)OCO3)c(OC)c1` (centres unmarked) [Compound 32], the IC50 under setting [1] is above 50 µM.
As for `COc1cc(O)c(C(CC(=O)N2CCc3ccccc3C2)c2ccc3c(c2)OCO3)c(OC)c1` (centres unmarked) [Compound 27], the Emax stood at 80.7%. Further, the IC50 under setting [1] was 11 to 50 µM.
As for `COc1cc(O)c(C(CC(=O)N2CC(C)CC(C)C2)c2cccc(Br)c2)c(OC)c1` (centres unmarked) [Compound 85, 3-(3-Bromophenyl)-1-(3,5-dimethylpiperidin-1-yl)-3-(2-hydroxy-4,6-dimethoxyphenyl)propan-1-one], the Emax is 103%. Moreover, the IC50 under setting [1] was in the range of 1 to 10 µM.
For `COc1ccccc1C(CC(=O)N1C[C@H](C)C[C@H](C)C1)c1ccccc1` (some centres unmarked) [Compound 55], the IC50 is, setting by setting: under setting [1], above 50 µM; under setting [3], above 20 µM.
On to `CCC1(CC)CCN(C(=O)CC(c2ccc3c(c2)OCO3)c2c(O)cc(OC)cc2OC)C1` (centres unmarked) [Compound 10], for which the Emax was found to be 89%. The same compound yielded an IC50 under setting [1] of 11 to 50 µM.
On the same counts, the results for `CCC1CCCN(C(=O)CC(c2ccc3c(c2)OCO3)c2c(O)cc(OC)cc2OC)C1` (centres unmarked) [Compound 7] are 96.2% and 1 to 10 µM.
On the same counts, the results for `COc1cc(O)c(C(CC(=O)N2CCCC(C#N)C2)c2ccc3c(c2)OCO3)c(OC)c1` (centres unmarked) [Compound 6] are 66% and 11 to 50 µM.
As to “1-(3,5-Dimethylpiperidin-1-yl)-3-(2-hydroxy-4,6-dimethoxyphenyl)-3-(3-(methylsulfonyl)phenyl)propan-1-one [Compound 83]”, the “Efficacy (%)” value is reported as −93.79%. In addition, the IC50 under setting [2] lay in the range of 1 to 10 µM.
Regarding `CC1CCCN(C(=O)CC(c2ccccc2)c2ccc(O)cc2)C1` (centres unmarked) [Compound 53], the half-inhibitory concentration (IC50) under setting [1] is above 50 µM.
Still for that read-out and setting: with `COc1cc(O)c(C(CC(=O)N[C@H](C)c2ccccc2)c2ccc3c(c2)OCO3)c(OC)c1` (some centres unmarked) [Compound 34] the figure was above 50 µM.
`COc1cc(OC)c(C(c2ccccc2)C(C)(C)C(=O)N2CC(C)OC(C)C2)c(OC)c1` (centres unmarked) [Compound 150]: the Emax was 91.6%. Under setting [1], this compound registered an IC50 of 1 to 10 µM.
On to `C#CCOc1cc(OC)cc(OC)c1C(CC(=O)N1CCCC(C)C1)c1ccc2c(c1)OCO2` (centres unmarked) [Compound 123], for which the Emax was determined as 98%. The IC50 under setting [1] was 1 to 10 µM.
Take `COCC1CCCN(C(=O)CC(c2ccc3c(c2)OCO3)c2c(O)cc(OC)cc2OC)C1` (centres unmarked) [Compound 12]: the Emax was 90.4%. The compound also registered an IC50 under setting [1] of 11 to 50 µM.
Take `COc1cc(O)c(C(CC(=O)N2CC(C)CC(C)C2)c2ccc3c(c2)OCCCO3)c(OC)c1` (centres unmarked) [Compound 80]: the Emax came out at 94%. The compound also showed an IC50 under setting [1] below 1 µM.
For the compound `COc1cc(O)c(C(CC(=O)N2CCCC(C(C)C)C2)c2ccc3c(c2)OCO3)c(OC)c1` (centres unmarked) [Compound 11], the Emax came out at 102%. This compound came in with an IC50 under setting [1] of 11 to 50 µM.
`COc1cc(O)c(C(CC(=O)N2CC(C)CC(C)C2)c2cccc(OCc3ccccc3)c2)c(OC)c1` (centres unmarked) [Compound 91]: the Emax is 92.6%. Also, under setting [1], the IC50 was 1 to 10 µM.
